# Source: PubChem BioAssay (NCI)
#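 Five compound concentrations were applied to cells in 96-well plates for 48 hours; endpoints were derived by simple linear interpolation of the resulting dose-response curve. Definition used: TGI = concentration required for complete inhibition of growth.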
# Legend:
# Test in all cases: inhibition of tumour cell growth, NCI panel, 48 h
# SF-268 CNS = system: SF-268 CNS
# HOP-62 NSCLC = system: HOP-62 NSCLC
# OVCAR-8 ovarian = system: OVCAR-8 ovarian
# HS 578T breast = system: HS 578T breast
# NCI-H226 lung = system: NCI-H226 lung
# SNB-19 CNS = system: SNB-19 CNS
# BT-549 breast = system: BT-549 breast
# IGROV1 ovarian = system: IGROV1 ovarian
# MDA-N = system: MDA-N
# CCRF-CEM leukemia = system: CCRF-CEM leukemia
# OVCAR-3 ovarian = system: OVCAR-3 ovarian
# SF-295 CNS = system: SF-295 CNS
# LOX IMVI melanoma = system: LOX IMVI melanoma
# NCI-H23 lung = system: NCI-H23 lung
# HCC-2998 colon = system: HCC-2998 colon
# SF-539 CNS = system: SF-539 CNS
# MCF7 breast = system: MCF7 breast
Structure (SMILES),TGI (SF-268 CNS) [µM],TGI (HOP-62 NSCLC) [µM],TGI (OVCAR-8 ovarian) [µM],TGI (HS 578T breast) [µM],TGI (NCI-H226 lung) [µM],TGI (SNB-19 CNS) [µM],TGI (BT-549 breast) [µM],TGI (IGROV1 ovarian) [µM],TGI (MDA-N) [µM],TGI (CCRF-CEM leukemia) [µM],TGI (OVCAR-3 ovarian) [µM],TGI (SF-295 CNS) [µM],TGI (LOX IMVI melanoma) [µM],TGI (NCI-H23 lung) [µM],TGI (HCC-2998 colon) [µM],TGI (SF-539 CNS) [µM],TGI (MCF7 breast) [µM]
COc1ccc(N2C(=O)c3cc(C)cnc3S2(=O)=O)cc1,> 100,> 100,> 100,> 100,> 100,> 100,> 100,> 100,> 100,> 100,> 100,> 100,> 100,> 100,> 100,–,–
CNC(=O)N1CN(c2ccccc2)C2(CCN(CCCC3(c4ccc(F)cc4)OCCO3)CC2)C1=O,> 100,> 100,–,> 100,> 100,> 100,–,> 100,> 100,> 100,> 100,> 100,> 100,> 100,> 100,> 100,> 100
CC1(C)CC(=O)C(/C=N/c2nc(-c3ccccc3)cs2)=C(O)C1,–,> 100,> 100,–,> 100,> 100,–,87.9,> 100,–,> 100,> 100,> 100,> 100,> 100,64.7,> 100
CCO/N=C(/N)c1ncn(Cc2ccccc2)c1NCC(OCC)OCC,> 100,> 100,> 100,–,> 100,> 100,–,> 100,–,> 100,> 100,> 100,> 100,–,> 100,> 100,–
CSC1=N/C(=C\c2ccccc2)C(=O)N1CN1CCCCC1,> 100,> 100,> 100,> 100,> 100,> 100,–,> 100,> 100,> 100,> 100,> 100,> 100,> 100,–,–,> 100
COC(=O)C(=Cc1cc(OC)c(OC)c(OC)c1-c1cc2c(cc1C(C)=O)OCO2)C(=O)OC,133,67.1,> 211,–,100,69.6,–,134,–,> 211,56.2,102,79.4,75.9,70.4,88.2,–
C/C=C(/C)C(=O)O[C@H]1C[C@@H]2[C@@H](O)c3occ(C)c3C[C@]2(C)[C@@H](C)C1,31,31.3,36.9,66.7,29.2,31.5,–,30.8,41.7,47.4,31.1,28.9,32.8,33.1,34,31.4,38.9
N#C/C(N)=C(\C#N)N=CN,> 100,> 100,> 100,> 100,–,–,–,> 100,> 100,> 100,> 100,> 100,> 100,> 100,> 100,> 100,> 100
